Measured values: patent US12448373B2, “Azetidinyl-acetamides as CXCR7 inhibitors” (CHEMOCENTRYX, INC., priority 2021, dated 2025)

Molecular target: T1, CXCR7 (Homo sapiens, UniProt P25106)
T1 construct: expressed in transfected cells; host or cells: CHO cells (CHO-CXCR7), transgenes maintained with Hygromycin B and G418
Experiment: CXCR7 β-arrestin recruitment assay in CHO-CXCR7 cells (ProLink/EA β-galactosidase complementation), induced by human SDF-1a
Format: cell-based
Conditions: assay buffer, SDF-1a at EC50 concentration
How it was run: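 SDF-1α-induced β-arrestin recruitment was measured by enzyme-fragment complementation (ProLink-CXCR7 with β-arrestin-EA) in stable CHO cells. Agonist was dosed at its EC50, determined the same day, alongside serially diluted compound for 1.5 h at 37 °C. Fluorogenic galactoside substrate (0.4 mM, 30 min) was read at 360/465 nm, with IC50 from 3-parameter nonlinear regression.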

T1 sequence (P25106 whole entry): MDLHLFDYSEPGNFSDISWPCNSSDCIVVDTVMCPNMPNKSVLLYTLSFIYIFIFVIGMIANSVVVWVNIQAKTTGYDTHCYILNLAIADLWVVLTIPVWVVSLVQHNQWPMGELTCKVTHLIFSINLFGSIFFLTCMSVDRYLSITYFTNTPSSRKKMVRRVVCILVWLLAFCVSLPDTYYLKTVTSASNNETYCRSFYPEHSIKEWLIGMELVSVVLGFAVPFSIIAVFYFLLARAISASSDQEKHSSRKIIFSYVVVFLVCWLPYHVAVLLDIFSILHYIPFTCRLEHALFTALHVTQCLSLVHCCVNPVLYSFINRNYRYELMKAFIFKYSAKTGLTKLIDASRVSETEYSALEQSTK

First: CC(C)(NC(=O)CC1(NC(=O)c2cc(-c3ccc(F)cc3F)on2)CN(C2CCOCC2)C1)c1ccccn1 [Example 1.317]
Second: CC(C)(NC(=O)CC1(NC(=O)c2cc(-c3ccc(F)cc3F)on2)CN(C2CCC3(CC2)COC3)C1)c1ccccn1 [Example 1.294]
The IC50 of the first is higher: 5 to 100 nM for the first, under 5 nM for the second. The second is the more potent here.

First: CC[C@H](NC(=O)CC1(NC(=O)c2cc(-c3ccc(F)cc3F)on2)CN(C2CCCCC2)C1)c1ccccc1 [Example 1.304]
Second: C[C@H](NC(=O)CC1(NC(=O)c2cc(-c3ccc(F)cc3F)on2)CN(CC2CC2)C1)c1ccccn1 [Example 1.324]
The IC50 of the first is lower: 5 to 100 nM for the first, 1000 to 20000 nM for the second.

Compared with Cc1cc(C)nc(C(C)(C)NC(=O)CC2(NC(=O)c3cc(-c4ccc(F)cc4F)on3)CN(CC3(C)COC3)C2)n1 [Example 1.131], Cc1cccc(C(C)(C)NC(=O)CC2(NC(=O)c3cc(-c4ccc(F)cc4F)on3)CN(CC(C)(C)O)C2)n1 [Example 1.240] is lower in IC50: 1000 to 20000 nM for the first, 5 to 100 nM for the second. The second is the more potent here.

First: Cc1cc(C)nc(C(C)(C)NC(=O)CC2(NC(=O)c3noc(-c4ccc(F)cc4F)c3C)CN(C3CCCCC3)C2)n1 [Example 1.341]
Second: Cc1cc(C2CC2)cc(C(C)(C)NC(=O)CC2(NC(=O)c3nnc(-c4ccc(F)cc4F)s3)CN([C@H]3CC[C@](C)(O)CC3)C2)n1 [Example 1.350]
The IC50 of the first is higher: 1000 to 20000 nM for the first, 5 to 100 nM for the second.

CC(C)(O)CCN1CC(CC(=O)NC(C)(C)c2cccc(F)c2)(NC(=O)c2cc(-c3ccc(F)cc3F)on2)C1 [Example 1.229] and CC(C)(O)CN1CC(CC(=O)NC(C)(C)c2ccccn2)(NC(=O)c2cc(-c3ccc(F)cc3F)on2)C1 [Example 1.255] fall in the same range of IC50: 5 to 100 nM for the first, 5 to 100 nM for the second.

Compared with Cc1ccc(F)c(C(C)(C)NC(=O)CC2(NC(=O)c3nnc(-c4ccc(F)cc4F)s3)CN([C@H]3CC[C@](C)(O)CC3)C2)n1 [Example 1.005], COc1cccnc1C(C)(C)NC(=O)CC1(NC(=O)c2nnc(-c3ccc(F)cc3F)s2)CN([C@H]2CC[C@](C)(O)CC2)C1 [Example 1.009] is higher in IC50: under 5 nM for the first, 5 to 100 nM for the second. The first is the more potent here.

CC(C)(NC(=O)CC1(NC(=O)c2ncc(-c3ccc(F)cc3F)s2)CN([C@H]2CC[C@](C)(O)CC2)C1)c1cccc(Cl)c1 [Example 1.046] and CC(C)(NC(=O)CC1(NC(=O)c2ncc(-c3ccc(F)cc3F)s2)CN([C@H]2CC[C@@](C)(O)CC2)C1)c1cccc(Cl)c1 [Example 1.045] fall in the same range of IC50: 5 to 100 nM for the first, 5 to 100 nM for the second.

First: CC(C)(NC(=O)CC1(NC(=O)c2cc(-c3ccc(F)cc3F)no2)CN([C@H]2CC[C@@](C)(O)CC2)C1)c1cccc(Cl)c1 [Example 1.047]
Second: CC(C)(NC(=O)CC1(NC(=O)c2csc(-c3ccc(F)cc3F)n2)CN([C@H]2CC[C@](C)(O)CC2)C1)c1cccc(Cl)c1 [Example 1.051]
The IC50 of the first is lower: 5 to 100 nM for the first, 1000 to 20000 nM for the second. The first is the more potent here.

CC(C)(NC(=O)CC1(NC(=O)c2cc(-c3ccc(F)cc3F)on2)CN([C@H]2CC[C@](C)(O)CC2)C1)c1cccc(OC(F)(F)F)c1 [Example 1.198] and COc1cc(F)cc(C(C)(C)NC(=O)CC2(NC(=O)c3cc(-c4ccc(F)cc4F)on3)CN([C@H]3CC[C@](C)(O)CC3)C2)c1 [Example 1.170] fall in the same range of IC50: 5 to 100 nM for the first, 5 to 100 nM for the second.

CC(C)(NC(=O)CC1(NC(=O)c2nnc(-c3ccc(F)cc3F)s2)CN([C@H]2CC[C@](C)(O)CC2)C1)c1cc(Cl)cc(Cl)c1 [Example 1.007] and COc1cc(Cl)cc(C(C)(C)NC(=O)CC2(NC(=O)c3cc(-c4ccc(F)cc4F)on3)CN([C@H]3CC[C@@](C)(O)CC3)C2)c1 [Example 1.160] cannot be ordered by IC50: under 5 nM for the first, under 5 nM for the second.

Cc1cccc(C(C)(C)NC(=O)CC2(NC(=O)c3nnc(-c4ccc(F)cc4F)s3)CN(CC(C)C)C2)n1 [Example 1.027] and CC(C)CN1CC(CC(=O)NC(C)(C)c2cc(Cl)cc(Cl)c2)(NC(=O)c2cc(-c3ccc(F)cc3F)on2)C1 [Example 1.093] fall in the same range of IC50: 5 to 100 nM for the first, 5 to 100 nM for the second.

First: CC(C)(NC(=O)CC1(NC(=O)c2cc(-c3ccc(F)cc3F)on2)CN([C@H]2CC[C@](C)(O)CC2)C1)c1c[nH]c2ncccc12 [Example 1.097]
Second: O=C(CC1(NC(=O)c2cc(-c3ccc(F)cc3F)on2)CN(Cc2ccccc2)C1)NC1(c2ncccn2)CC1 [Example 1.329]
The IC50 of the first is lower: 5 to 100 nM for the first, 100 to 1000 nM for the second. The first is the more potent here.
